In patent publication US20250352654A1, “PHARMACEUTICAL AGENT CONJUGATES TO MODULATE MACROPHAGE AND INFLAMMATORY FUNCTIONS AND USES THEREOF” (REGENTS OF THE UNIVERSITY OF MINNESOTA, priority 2022, published 2025):
Read-outs that look alike come from different tables or passages of the source. Bridge positions count the residues as written; N and C are the ends. Square brackets hold non-standard residues; d marks the D form. Ends that are not written are not given here. FAM = fluorescein amidite (fluorescein); Ahx = NCCCCCC(=O)O

Assays:
[1] = In vivo pharmacokinetics of PSL conjugates; conditions: male, C57BL/6, mouse, plasma, iv, healthy mice, 1 mg kg-1 equivalent dose of PSL
Method: FIG. 2U discloses mean plasma concentration-time curves of PSL following intravenous administration of free PSL, Cys-PSL and CRV-PSL with an equivalent PSL dosage at 1 mg kg^−1. All the animal experiments were performed in 3-4 mice per group. The data are presented as the mean±standard deviation (SD). Statistical significance was calculated using Student's t test. *P<0.05, **P<0.01, CRV-PSL vs free PSL group; #P<0.05, ##P<0.01, ###P<0.001 Cys-PSL vs free PSL group.
HPLC-MS/MS analysis was performed using the chromatographic system consisted of UltiMate™ 3000 RSLCnano System (Thermo Fisher Scientific) and a ZORBAX™ C18 column (5 μm, 150 mm 0.5 mm, Agilent, Santa Clara, CA). The mobile phase was a mixture of H2O/acetonitrile with a gradient elution (from 90:10 to 10:90 and return to 90:10, v/v) at a flow rate of 15 μl/min. The eluent was introduced directly into the electrospray source of a tandem quadrupole mass spectrometer (TSQ VANTAGE™, Thermo Fisher Scientific) that was operated in the positive mode. The spray voltage was set at 3000 V. The compounds were analyzed by multiple reaction monitoring (MRM) of the transitions of m/z (ESI+) 361.24→147.06 for PSL.
Healthy male C57BL/6 mice (8- to 9-weeks-old; body weight of 25-30 g) were deprived of food overnight with free access to water. […]
We first evaluated the plasma pharmacokinetics of CRV-PSL in healthy mice.

[2] = format: in vivo, mouse; conditions: for Thymus weight: mean; for Lymphocytes (count of total blood lymphocytes) / T cells (CD45+CD3+) count: normalized to the vehicle group
Method: (C and D) Flow-cytometry analysis of blood cell populations in mice with different treatment. The count of (C) blood lymphocytes and (D) T cells in mice receiving different treatment were normalized to the vehicle group. […] The weight of thymus was measured, and the blood was collected for flow cytometry 4 h after the third dose of treatment. All experiments were performed in 3-4 mice per group, and the experiment was repeated three times. Data shown are mean±SD. Student's t test was performed for statistical analysis. *p<0.05, **p<0.01, ***p<0.001.
The gating was started with choosing the live cells by plotting SSC-A vs. FSC-A. Single cells were then selected by plotting FSC-A vs. FSC-H for the live cells followed by subpopulation of CD45+ cells. The lymphocytes were selected by plotting CD45+ cells and SSC-A, which were then selected for T cells by CD3 staining. The tissues and the blood were collected 4 hours after the third dose of treatment. All experiments were performed in 3-4 mice per group and the experiment was repeated three times. The data are presented as the mean±standard deviation (SD). Statistical significance was calculated using Student's t test.
To identify subpopulations of myeloid cells, single cell suspensions were collected from the lung with a lung dissociation kit for mouse (Miltenyi Biotec, Auburn, CA) and other tissues, including blood and spleen, were collected for flow cytometry analysis. […] Flow cytometry analysis was performed on a BD Fortessa™ X-20 (BD Biosciences, East Rutherford, NJ). The data were analyzed with Flow JO™ software (Tree Star, San Carlos, CA).

4T1 breast cancer tumor = experiment: Tumor accumulation of D-CRV and L-CRV after oral administration; format: in vivo, mouse; conditions: 4 hours, IF
Method: FAM-labeled L-CRV or D-CRV was orally administered to tumor-bearing mice.
To compare the in vivo distributions of the D-isoform of CRV (D-CRV) and the L-isoform of CRV (L-CRV), fluorescein (FAM) dye labeled D-CRV and L-CRV peptides were synthesized. 100 μL of peptide solution (5 mg/mL in PBS) was administered via oral gavage into mice bearing a 4T1 breast cancer tumor (for a description of how this mouse model is generated, see J Control Release 301:42-53, 2019) 4 hours before the tumors were collected. Peptide accumulation in the tumor was observed by immunofluorescence (IF) staining of FAM. We had previously shown that L-CRV homes to such tumors following intravenous injection. […] Additionally, (D)-CRV-DEX was first applied to RA mice model via subcutaneous administration with hydrogel. […] The pharmacokinetics (PK) and biodistribution at other time points will be further evaluated.

inflamed lung = experiment: CRV peptide homing in LPS-induced ALI mice (IHC/IF); format: in vivo, mouse; conditions: healthy (PBS) mice; FAM-labeled peptide i.v., 1 h; IHC and IF
Method: (A) Representative immunohistochemistry (IHC) images of targeting RXRB by CRV peptide in the lung of acute lung injury (ALI) mice. Control (PBS) or ALI (LPS-treated) mice were intravenously injected with FAM-labeled CRV or a control peptide (GGS) for 1 h homing, respectively. The lungs were collected for IHC analysis on whole-cell RXRB expression (left) and peptide amount (detected by anti-FITC antibody, right). (B) Quantification of FITC expression for FAM-labeled peptides in the lungs by IHC staining. (C) Representative immunofluorescence (IF) images of colocalization of rabbit anti-RXRB antibody with CD11b in PBS controls (top) and acute lung injury (ALI) mice (bottom). The lungs were collected for IF staining for the indicated markers after 6 h in vivo homing by intravenous injection of 25 mg of rabbit polyclonal RXRB antibodies in […] of PBS in mice. The mice receiving intratracheal injection of PBS served as healthy controls. All the animal experiments were performed in three mice per group. (D) Relative percentage of RXRB-positive cells in different tissues of ALI mice. […] The fluorescence intensity for CRV or GGS binding per cells was plotted in the histograms. […] (H) Quantification of RXRB in IHC sections from lungs of human subjects with ILD. […] FAM, carboxyfluorescein; FITC, fluorescein iso-thiocyanate; A.U., arbitrary units; MFI, mean fluorescence intensity; Neg, negative. […]

arthritic joints = experiment: CRV accumulation in joints of K/BxN serum-transfer arthritis mice (IHC); format: in vivo, mouse; conditions: FAM peptide i.v., 1 hour
Method: (B) The arthritic mice were injected intravenously with a control peptide (GGS, top) or CRV (bottom). The mice were sacrificed after 1 hour and joints were collected for IHC staining.
FIGS. 7B-7D illustrates In vivo CRV peptide distribution in arthritic mouse models. (B) Scheme of synthesis of 64Cu-DOTA-CRV. (C) Representative immunohistochemistry (IHC) images of peptide accumulation in the tissues of collagen-induced-arthritis (CIA) mice with anti-FITC antibody for FAM-labeled CRV and FAM-GGS, upon intravenous injection for 1 h, respectively. Scale bars: 100 μm. (D) Representative IHC images of CRV-peptide and a control peptide (GGS) accumulation in the ankle joints of K/B×N serum-transfer arthritic mice at 1 h post intravenous injection as detected by FAM signals with anti-FITC antibody. Scale bar: 200 μm for 10× magnification; 100 μm for 20× magnification. All the animal experiments were performed in 3 mice per group. DOTA, 1,4,7,10-tetraazacyclododocane tetraacetic acid; FAM, carboxyfluorescein; FITC, fluorescein isothiocyanate.
To study the accumulation of CRV in inflamed joints, 100 μl of fluorescein (FAM)-CRV peptide solution (1 mg/ml in PBS) and the control peptide, GGS (SEQ ID NO: 2), was injected intravenously into mice with K/B×N serum-transfer arthritis (for a description of this mouse model, see VetPathol 52(5):819-26, 2015). […]

[3] = 0.1 or 1 mg kg-1 PSL equivalent

`C[C@]12C=CC(=O)C=C1CC[C@@H]1[C@@H]2[C@@H](O)C[C@@]2(C)[C@H]1CC[C@]2(O)C(=O)CO` [Free PSL, prednisolone] gave an AUC(0-t) ([1]; mean (n = 3)) of 41300 ng·h/mL, a half-life ([1]; mean ± SD (n = 3)) of 3.78 ± 0.5 h and a Thymus weight ([2]; 0.1 mg kg-1 PSL equivalent i.v. every 2 days for 5 days) of 36.3 mg. For the same compound, the “Lymphocytes (count of total blood lymphocytes)” value ([2]; 0.1 mg kg-1 PSL equivalent) was 0.45 fold changes, the “T cells (CD45+CD3+) count” value ([2]; 0.1 mg kg-1 PSL equivalent) was 0.47 fold changes and the Thymus weight ([2]; 1 mg kg-1 PSL equivalent i.v. every 2 days for 5 days) was 28.3 mg. For the same compound, the “Lymphocytes (count of total blood lymphocytes)” value ([2]; 1 mg kg-1 PSL equivalent) was 0.27 fold changes, the “T cells (CD45+CD3+) count” value ([2]; 1 mg kg-1 PSL equivalent) was 0.40 fold changes and the “apoptosis in the thymus and other organs (TUNEL)” value [2, 3] was “increases the level of apoptosis mainly in the thymus”. For the same compound, the “counts of total lymphocytes and T subsets (in words)” value [2, 3] was “reduced the counts of total lymphocytes and T subsets” and the “thymus weight (in words)” value ([2]; 0.1 or 1 mg kg-1 PSL equivalent i.v. every two days for five days) was “greatest reduction in thymus weight”.

For “D-CRV: D-isoform of CRV (SEQ ID NO: 52), fluorescein (FAM) dye labeled ([dC][dR][dV][dL][dR][dS]G[dS][dC]; disulfide 1-9 (inferred); also: FAM label, position not given here)”, the “peptide accumulation in the tumor” value (4T1 breast cancer tumor; FAM-labeled peptide, oral gavage 100 uL of 5 mg/mL) was “significant accumulation of CRV in the tumors” and the “colocalization with CD11b in the tumor” value (4T1 breast cancer tumor; oral gavage) was “colocalization with the myeloid cell marker CD11b in the tumor”.

With “GGS: control peptide <FAM>-<Ahx>-GGSGGSKG (SEQ ID NO: 2) ({FAM-Ahx}-GGSGGSKG)” the “peptide accumulation in the healthy lung” value (inflamed lung) was “little accumulation” and the “peptide accumulation in arthritic joints” value (arthritic joints) was “few FAM signals were detected”.
